Experimental data: ChEMBL document CHEMBL1138307, “Structure activity relationship studies of carboxamido-biaryl ethers as opioid receptor antagonists (OpRAs). Part 2” (Bioorg Med Chem Lett, 2007)

Tests used:
Assay type in all cases: cell-based
[1] = molecular target: Kappa-type opioid receptor (Homo sapiens, UniProt P41145); assay: Displacement of [3H]diprenorphine from cloned human kappa opioid receptor expressed in CHO cells
[2] = molecular target: Delta-type opioid receptor (Homo sapiens, UniProt P41143); assay: Displacement of [3H]bremazocine from cloned human delta opioid receptor expressed in CHO cells
Mu-type opioid receptor = Mu-type opioid receptor (Homo sapiens, UniProt P35372); assay: Displacement of [3H]diprenorphine from cloned human mu opioid receptor expressed in CHO cells
Sequence of Mu-type opioid receptor (P35372 whole entry): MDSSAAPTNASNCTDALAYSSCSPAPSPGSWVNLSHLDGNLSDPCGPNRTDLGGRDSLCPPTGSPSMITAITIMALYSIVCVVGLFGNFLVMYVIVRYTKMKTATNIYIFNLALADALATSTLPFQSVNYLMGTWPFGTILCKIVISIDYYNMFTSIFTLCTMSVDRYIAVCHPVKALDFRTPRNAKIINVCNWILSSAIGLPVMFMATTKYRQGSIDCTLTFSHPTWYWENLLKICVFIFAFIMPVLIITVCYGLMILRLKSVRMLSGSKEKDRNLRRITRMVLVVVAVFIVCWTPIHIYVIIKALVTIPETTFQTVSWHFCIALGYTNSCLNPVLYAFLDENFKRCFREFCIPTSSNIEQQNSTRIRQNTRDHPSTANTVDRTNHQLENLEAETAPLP

Sequence of Kappa-type opioid receptor (P41145 whole entry): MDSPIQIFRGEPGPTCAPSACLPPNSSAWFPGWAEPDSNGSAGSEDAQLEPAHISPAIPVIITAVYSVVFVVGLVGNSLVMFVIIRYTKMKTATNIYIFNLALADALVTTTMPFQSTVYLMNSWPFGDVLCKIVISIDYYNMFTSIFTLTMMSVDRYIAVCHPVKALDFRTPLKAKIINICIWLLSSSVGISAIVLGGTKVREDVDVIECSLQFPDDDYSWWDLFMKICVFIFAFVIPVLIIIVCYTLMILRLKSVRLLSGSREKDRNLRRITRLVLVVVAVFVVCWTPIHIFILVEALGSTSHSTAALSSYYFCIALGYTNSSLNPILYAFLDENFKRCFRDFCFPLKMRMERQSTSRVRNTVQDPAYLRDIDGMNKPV
Sequence of Delta-type opioid receptor (P41143 whole entry): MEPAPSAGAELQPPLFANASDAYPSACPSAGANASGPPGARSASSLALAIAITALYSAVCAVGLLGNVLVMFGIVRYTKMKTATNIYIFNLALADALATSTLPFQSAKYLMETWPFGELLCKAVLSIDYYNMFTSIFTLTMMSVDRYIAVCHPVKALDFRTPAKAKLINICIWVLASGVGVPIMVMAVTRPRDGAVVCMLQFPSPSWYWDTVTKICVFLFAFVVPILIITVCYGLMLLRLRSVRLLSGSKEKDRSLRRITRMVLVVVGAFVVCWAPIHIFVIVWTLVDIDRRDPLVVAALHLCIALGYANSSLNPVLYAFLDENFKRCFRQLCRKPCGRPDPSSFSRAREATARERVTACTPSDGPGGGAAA

## NC(=O)c1ccc(Oc2ccc3c(c2)CN(CCc2ccccc2)C3)nc1
[1]
  Ki: > 5 µM
[2]
  Ki: 2.27 µM
Mu-type opioid receptor
  Ki: 0.659 µM

## NC(=O)c1ccc(Oc2ccc3c(c2)CCN(Cc2ccccc2)C3)nc1
[1]
  Ki: 2.15 µM
[2]
  Ki: 2.35 µM
Mu-type opioid receptor
  Ki: 0.179 µM

## NC(=O)c1ccc(Oc2ccc3c(c2)CCN(CCCc2ccccc2)C3)nc1
[1]
  Ki: 0.556 µM
[2]
  Ki: 2.14 µM
Mu-type opioid receptor
  Ki: 0.185 µM

## NC(=O)c1ccc(Oc2ccc3c(c2)CN(CCc2ccccc2)CC3)nc1
[1]
  Ki: 3.61 µM
[2]
  Ki: > 5 µM
Mu-type opioid receptor
  Ki: > 3.33 µM

## NC(=O)c1ccc(Oc2ccc3c(c2)CCCN(CCc2ccccc2)C3)nc1
[1]
  Ki: 0.361 µM
[2]
  Ki: 0.169 µM
Mu-type opioid receptor
  Ki: 0.0101 µM

## NC(=O)c1ccc(Oc2ccc3c(c2)CCN(Cc2ccccc2)CC3)nc1
[1]
  Ki: 2.87 µM
[2]
  Ki: 2.71 µM
Mu-type opioid receptor
  Ki: 0.406 µM

## NC(=O)c1ccc(Oc2ccc3c(c2)CCN(CCc2ccccc2)CC3)nc1
[1]
  Ki: > 4.9 µM
[2]
  Ki: 1.38 µM
Mu-type opioid receptor
  Ki: 0.0915 µM

## NC(=O)c1ccc(Oc2ccc(CCN3CCc4ccccc4C3)cc2)nc1
[1]
  Ki: 0.188 µM
[2]
  Ki: 0.144 µM
Mu-type opioid receptor
  Ki: 0.00505 µM

## CCCCN1CCCc2cc(Oc3ccc(C(N)=O)cn3)ccc2C1
[2]
  Ki: 0.504 µM
Mu-type opioid receptor
  Ki: 0.0208 µM

## CCCCCN1CCCc2cc(Oc3ccc(C(N)=O)cn3)ccc2C1
[1]
  Ki: 0.106 µM
[2]
  Ki: 0.187 µM
Mu-type opioid receptor
  Ki: 0.0119 µM

## CCCCCCN1CCCc2cc(Oc3ccc(C(N)=O)cn3)ccc2C1
[1]
  Ki: 0.116 µM
[2]
  Ki: 0.163 µM
Mu-type opioid receptor
  Ki: 0.012 µM

## CC(C)CCN1CCCc2cc(Oc3ccc(C(N)=O)cn3)ccc2C1
[1]
  Ki: 0.0781 µM
[2]
  Ki: 0.232 µM
Mu-type opioid receptor
  Ki: 0.0111 µM

## CC(C)CCCCN1CCCc2cc(Oc3ccc(C(N)=O)cn3)ccc2C1
[1]
  Ki: 0.319 µM
[2]
  Ki: 0.24 µM
Mu-type opioid receptor
  Ki: 0.0119 µM

## CCC(CC)CN1CCCc2cc(Oc3ccc(C(N)=O)cn3)ccc2C1
[1]
  Ki: 0.0616 µM
[2]
  Ki: 3.89 µM
Mu-type opioid receptor
  Ki: 0.042 µM

## NC(=O)c1ccc(Oc2ccc3c(c2)CCCN(CCCC2CCCCC2)C3)nc1
[1]
  Ki: 0.704 µM
[2]
  Ki: 0.466 µM
Mu-type opioid receptor
  Ki: 0.0417 µM

## NC(=O)c1ccc(Oc2ccc3c(c2)CN(Cc2ccccc2)C3)nc1
[1]
  Ki: > 5 µM
[2]
  Ki: > 5 µM
Mu-type opioid receptor
  Ki: 1.01 µM

## NC(=O)c1ccc(Oc2ccc3c(c2)CCCN(CCN2CCOCC2)C3)nc1
[1]
  Ki: 0.36 µM
[2]
  Ki: 1.91 µM
Mu-type opioid receptor
  Ki: 0.129 µM

## NC(=O)c1ccc(Oc2ccc3c(c2)CCCN(CCCN2CCOCC2)C3)nc1
[1]
  Ki: 3.25 µM
[2]
  Ki: 2.58 µM
Mu-type opioid receptor
  Ki: 0.216 µM

## CC(C)CCCN1CCCc2cc(Oc3ccc(C(N)=O)cn3)ccc2C1
[1]
  Ki: 0.106 µM
[2]
  Ki: 0.108 µM
Mu-type opioid receptor
  Ki: 0.00755 µM

## CC(C)(C)CCN1CCCc2cc(Oc3ccc(C(N)=O)cn3)ccc2C1
[1]
  Ki: 0.0716 µM
[2]
  Ki: 0.409 µM
Mu-type opioid receptor
  Ki: 0.0183 µM

## NC(=O)c1ccc(Oc2ccc3c(c2)CCN(CCc2ccccc2)C3)nc1
[1]
  Ki: 1.22 µM
[2]
  Ki: 0.18 µM
Mu-type opioid receptor
  Ki: 0.016 µM

## NC(=O)c1ccc(Oc2ccc3c(c2)CN(Cc2ccccc2)CC3)nc1
[1]
  Ki: 2.43 µM
[2]
  Ki: 2.45 µM
Mu-type opioid receptor
  Ki: 0.232 µM

## NC(=O)c1ccc(Oc2ccc3c(c2)CCCN(CCCC(F)(F)F)C3)nc1
[2]
  Ki: 0.388 µM
Mu-type opioid receptor
  Ki: 0.0244 µM
